Test results as given in patent publication US8586530B2, “Modulation of inhibition of ferrochelatase by N-methyl protoporphyrin” (University of South Florida, priority 2006, dated 2013).

Biological target: T1, wild-type ferrochelatase (Mus musculus, UniProt P22315)
T1 construct: In wild-type, murine, mature ferrochelatase, five tryptophan residues; penta-histidine tag (N); made in house; host or cells: E. coli BL21(DE3)
T1 sequence (P22315 54-422): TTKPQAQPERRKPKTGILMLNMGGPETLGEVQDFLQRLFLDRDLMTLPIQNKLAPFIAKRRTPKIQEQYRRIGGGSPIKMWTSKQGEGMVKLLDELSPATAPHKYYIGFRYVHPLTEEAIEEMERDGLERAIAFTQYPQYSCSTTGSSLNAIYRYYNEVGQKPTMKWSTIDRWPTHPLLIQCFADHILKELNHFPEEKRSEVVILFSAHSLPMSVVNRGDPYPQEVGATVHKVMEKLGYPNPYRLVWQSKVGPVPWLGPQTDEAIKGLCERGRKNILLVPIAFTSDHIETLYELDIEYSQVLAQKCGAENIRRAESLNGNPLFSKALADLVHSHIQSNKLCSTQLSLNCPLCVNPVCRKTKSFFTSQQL
Assay: Transient kinetic analysis of NMPP inhibition (stopped-flow, zinc-protoporphyrin formation)
Assay type: biochemical, murine
Description: Enzyme (0.5 μM) was reacted with protoporphyrin (5 μM) and zinc-acetate (15 μM) in the presence of various concentrations of NMPP. The pseudo first-order rate constant k was obtained from analysis of the time course (see Materials and Methods and FIG. 4) and plotted against NMPP concentration. The enzymes used in each set were: A. wild-type ferrochelatase; B. variant P255R; C. variant P255G.
In order to obtain the pseudo first-order rate constants for NMPP binding, the kinetic traces for zinc-protoporphyrin formation in the presence of various concentrations of inhibitor were fitted to equation 3. […] The data were fit to equation 1 for a two step process:
[formula] where k is the pseudo first-order rate constant for the approach to the steady-state phase, I0 is the inhibitor concentration, S0 is the initial substrate concentration,
[formula] is the apparent inhibition constant, Ki^app, and k2 and k−2 are the second step forward and reverse rate constants, respectively. […] A two kinetic step process for binding of NMPP to either wild-type ferrochelatase or P255R (i.e., a fast, initial step for NMPP binding to the enzyme, followed by a slow step, possibly related to a conformational rearrangement of the protein-inhibitor complex) is consistent with the porphyrin-triggered conformational change of the active-site pocket deduced from the analysis of the crystal structure of B. subtilis ferrochelatase with bound N-methyl mesoporphyrin in comparison with that of the unliganded protein. […] Therefore the diminished inhibition of variant P255R by NMPP (Ki^app=1 μM vs. Ki^app=3 nM for wild-type ferrochelatase) cannot be accounted for by differences in these rates.
Transient Kinetic Analysis. The kinetic steps involved in NMPP binding to ferrochelatase were assessed using stopped-flow absorption spectroscopic analysis by monitoring the enzymatic reaction in the presence of various concentrations of the inhibitor NMPP. The reactions were performed using a rapid scanning stopped-flow spectrophotometer (model RSM-1000; OLIS Inc.), equipped with a stopped-flow mixer and an observation chamber with an optical path-length of 4 mm. The dead time of the instrument is ˜2 ms. Scan spectra spanning the wavelength range of 347 to 574 nm were collected at a rate of 1000 scan/sec. The syringes containing the reaction components and the stopped-flow cell were maintained at 30° C. using an external water-bath. The concentrations of reagents loaded into each syringe were two-fold greater than the final concentrations in the observation chamber. Enzymatic activity was monitored by following the increase in absorbance at 420 nm for zinc-protoporphyrin production using Zn^2+ and protoporphyrin as substrates.
The enzyme and substrate stock solutions were diluted in 100 mM Tris-acetate, pH 8.0, containing 0.5% Tween-80. The stock solutions for substrates and inhibitor were prepared as follows: A 3 mM zinc-acetate solution was made by dissolving zinc-acetate in distilled and deionized H2O. A 200 μM protoporphyrin solution was prepared by dissolving protoporphyrin 1× in 50 mM NH4OH containing 0.5% Tween-80. A 2 mM NMPP solution was prepared by dissolving NMPP in 100 mM NH4OH containing 0.5% Tween-80. Typically, a 2 mL solution that was 1 μM in ferrochelatase and 10 μM in protoporphyrin was pre-incubated on ice for 30 min. The porphyrin-enzyme solution was titrated with NMPP. The mixture was subsequently transferred to one of the stopped-flow syringes. The other stopped-flow syringe was loaded with a reaction buffer solution of ˜2 mL that was 30 μM in zinc-acetate. The enzymatic reaction was initiated by mixing the contents from both syringes and reaction progression was monitored by following the increase in absorbance at 420 nm. The data were analyzed by fitting the observed absorbance values to equation 4: […]

Substance: N-methyl protoporphyrin [NMPP]
- second step forward rate constant k2: 6.4 s⁻¹
- second step reverse rate constant k−2: 24.5 s⁻¹
- Ki (two-step fit (equation 1), read-out: apparent inhibition constant Ki^app): 3 nM
